# Laboratory results: PMC5413024, “Mechanistic insights into the more potent effect of KP-54 compared to KP-10 in vivo” (PLoS ONE, 2017)
# Ends that are not written are not given here.
# Legend:
# [1] = men / humans; ref [5], [30] (KP-10), ref [5] (KP-54); cited from earlier work
# Text: It should be noted, however that the RIA used to measure KP-54 may also detect shorter breakdown products of this protein that might be biologically inert. It is likely that the lack of GnRH neuronal activation and sustained LH release by KP-10 is mainly due to its instability. It is noteworthy that we failed ...
# [2] = Study 4: pharmacokinetics of plasma kisspeptin after i.p. injection (radioimmunoassay); assay type: in vivo, mouse; details: male mice
# Description: Male mice received a single i.p. injection of 1 nmol KP-10 or 1 nmol KP-54. 100 μl of blood was collected from the lateral tail vein from groups of mice (n = 4) for each time point (0, 1 min, 2 min, 5 min, 10 min, 30 min, 60 min and 120 min). Terminal bleeds were collected from the vena cava. Blood was mixed with 5 μl EDTA, centrifuged at 10,000 x g for 10 min at 4°C to obtain the plasma fraction, and stored at -20°C until assayed. Kisspeptin concentrations were measured using an established in house competitive radioimmunoassay (RIA, [5]. Briefly, this RIA uses a sheep polyclonal antibody (GQ2), raised against human KP-54, which cross-reacts with human KP-54, KP-14 and KP-10.
# 3–5 month old wild-type (129S6/SvEv) male mice were used in this study. The mice were housed in open cages on a 12 hour light cycle (lights on at 0700 h) at a controlled temperature (22°C), and were provided with food and water ad libitum. All experiments were performed under the authority of a United Kingdom Home Office Project License and were approved by a Cambridge Animal Ethics Committee.
# [3] = from the product data sheets; ref product data sheets (manufacturer); cited from earlier work
# Description: KP-10 [human Metastin (45–54) amide, M-2816] was purchased from Sigma-Aldrich. KP-10 consists of the C-terminal 10-amino acids of KP-54. Human KP-54 was synthesized by the Advanced Biotechnology Centre, Imperial College, London, UK. BSA-FITC was purchased from Sigma (A9771). From the product data sheets, the solubility of KP-10 and KP-54 in water is 1mg/ml. We prepared stock solutions in sterile PBS at 100 μM, which is almost ten times lower than the solubility limit set by the manufacturer. The 100 μM stock solution was diluted in sterile PBS and 100 μl of the working solution was injected to ...
# [4] = test system: LH secretion; assay: S1 Fig: plasma LH after i.p. injection of penetratin-extended Kp10; assay type: in vivo, mouse; details: single 100 μl i.p. injection, blood at 10 min and 2 hrs, n = 2 per treatment
# Description: Supplementary file pone.0176821.s001.tif: S1 Fig Kisspeptin-penetratin treatment. This experiment aimed at facilitating Kp10 to cross the blood-brain-barrier by adding a penetratin extension to the […] end of Kp10, thereby putatively provided with higher permeability. Two penetratin variants were tested: the pen(ala2) residue has a lower protein transduction domain activity than pen-Kp10. […] Each animal received a single 100 μl i.p. injection of either PBS, Kp10, Kp54, Pen-Kp10 or Pen(ala2)-Kp10. Blood samples were collected at 10 min (from tail vein) and 2 hrs (from vena cava upon sacrifice) time points after administration. […] (TIF) Click here for additional data file.
Molecule,half-life in the blood stream in humans [1] [min],"peak (maximum) plasma kisspeptin level ([2]; 1 nmol i.p., RIA (GQ2 antibody), mean ± SEM, n = 4 per time point) [pmol/L]","plasma kisspeptin level by 10 min post-injection ([2]; 1 nmol i.p., RIA, n = 4)","time of peak plasma kisspeptin level post-injection ([2]; 1 nmol i.p., RIA, n = 4 per time point) [min]","plasma half-life ([2]; 1 nmol i.p., estimated from RIA plasma levels, RIA recognises all forms of Kp, may include breakdown products)","fraction of the injected peptide entering the bloodstream after intraperitoneal injection ([2]; 1 nmol i.p., assuming a total blood volume of approximately 5 ml)","peak level in the bloodstream, times lower than that of KP-54 ([2]; equimolar 1 nmole i.p., 250 pmol/L vs 12000 pmol/L) [times]",solubility in water [3] [µg/mL],effect of penetratin extension on Kp10-induced LH secretion [4]
"CC(C)C[C@H](NC(=O)CNC(=O)[C@H](Cc1ccccc1)NC(=O)[C@H](CO)NC(=O)[C@H](CC(N)=O)NC(=O)[C@H](Cc1c[nH]c2ccccc12)NC(=O)[C@H](CC(N)=O)NC(=O)[C@@H](N)Cc1ccc(O)cc1)C(=O)N[C@@H](CCCNC(=N)N)C(=O)N[C@@H](Cc1ccccc1)C(N)=O [KP-10, human Metastin (45–54) amide]",3.8,248 ± 9,undetectable,2,about 4 min,around 0.13%,~50,1000,–
NRRMAWAKYYNWNSFGLRF-NH2 [Pen(ala2)-Kp10],–,–,–,–,–,–,–,–,does not improve the Kp10-induced LH secretion
NRRMKWKKYYNWNSFGLRF-NH2 [Pen-Kp10],–,–,–,–,–,–,–,–,does not improve the Kp10-induced LH secretion
